The values below come from EPA's ToxValDB 9.5.

Values joined by “and” are separate entries in the source; they are usually repeats but may differ in a detail not shown here. Equal values may be shown once.

One data set concerns Coturnix japonica. The following applies: repeat dose other; oral.
A further data set concerns Neovison sp. The following applies: repeat dose other; oral; Mink.
Data set [1] has as its system Rattus norvegicus. To be noted: uterotrophic; duration: 3 days; injection; intraperitoneal; Active.
Data set [2] relates to Rattus norvegicus. To be noted: short-term; duration: 28 days; oral; gavage; unknown; Wistar; renal.
The test system of data set [3] is Rattus norvegicus. The following applies: subchronic, M/F.
For data set [4], the system named is Rattus norvegicus. The following applies: subchronic; duration: 90 days; oral; gavage; Blood: Increased alkaline phosphatase + Blood: Increased SGPT + Brain: Decreased weight.
For data set [5], the system named is Rattus norvegicus. To be noted: repeat dose other; oral.
Data set [6] relates to Rattus norvegicus. The following applies: Sprague-Dawley.
The test system of the next data set is Primate. The following applies: inhalation.
Data set [7] concerns Mus musculus. The following applies: inhalation.
For data set [8], the system named is Mus musculus. The following applies: oral, M/F; for NOEL: duration: 2 years, Albino, increased liver weight.
Data set [9] deals with Canidae.
In data set [10] the test system is Rattus norvegicus. To be noted: subchronic, oral, Fischer 344.
The subject of data set [11] is Mus musculus. The following applies: subchronic; duration: 13 weeks; oral; diet; Testis: Damage.
The next data set deals with Anas platyrhynchos. The following applies: oral.
Data set [12] relates to Canidae. To be noted: oral, capsule, M/F, Histopathological changes in the spleen and bone marrow indicative of anaemia.
The subject of data set [13] is Rattus norvegicus. The following applies: duration: 2 years, oral, M/F, Crl, Reduced bodyweight gain.
The mark [14] stands for this setting: developmental, duration: 11 days, inhalation.
[15] abbreviates: short-term, duration: 4 weeks, inhalation.
The mark [16] stands for this setting: subchronic, duration: 90 days, oral, gavage.
The mark [17] stands for this setting: reproduction developmental, duration: 6 days, Macaca Fascicularis.
Setting [18] is: reproduction developmental, duration: 20 days, F, CD1.
The mark [19] stands for this setting: chronic, duration: 78 weeks, diet, CD1, Increased incidences of fatty change & hypertrophy in hepatocytes.
Setting [20] is: duration: 90 days, oral, reduced body weight and neurotoxicity.

As a reminder, the LOAEL is the lowest dose or exposure tested at which an adverse effect was seen. The NOAEL is the highest tested level that showed no adverse finding.

In the case of `[Cl][Hg][Cl]` [Mercuric chloride], the LOAEL was 0.9 mg/kg-day in the data set with Coturnix japonica; 0.015 mg/kg-day in the data set on Rattus norvegicus [2]; 0.226 mg/kg-day in the data set on Rattus norvegicus [3] (injection, subcutaneous, autoimmune effects (autoimmune glomerulonephritis)); 0.317 mg/kg-day and 0.633 mg/kg-day in the data set with Rattus norvegicus [3] (oral, diet, autoimmune effects (autoimmune glomerulonephritis)). Moreover, the NOAEL stood at 0.45 mg/kg-day with Coturnix japonica and 1 mg/kg-day in the data set with Neovison sp.. For the same compound, the LEL in the data set on Rattus norvegicus [1] amounted to 1 mg/kg-day.

On to `CO` [Methanol], for which, in the data set on Rattus norvegicus [4], the NOEL came to 500 mg/kg-day. The LOAEL in the data set with Rattus norvegicus [5] is 250 mg/kg-day; in the data set on Rattus norvegicus [6] (setting [14]), no more than 6550 mg/m3; in the data set with Rattus norvegicus [6] (developmental, duration: 19 days, inhalation), no more than 26200 mg/m3; with Rattus norvegicus [6] (reproduction developmental, duration: 19 days, inhalation, F), no more than 26200 mg/m3; in the data set with Rattus norvegicus [6] (setting [15]), 6550 mg/m3; with Rattus norvegicus [6] (setting [16]), 2500 mg/kg-day. Further, the LOAEL in the data set with Primate (setting [17]) is 6550 mg/m3; in the data set with Mus musculus [7] (developmental, duration: 10 days, CD1), 2620 mg/m3; in the data set on Mus musculus [7] (developmental, duration: 20 days, CD1) it was 13100 mg/m3; in the data set with Mus musculus [7] (setting [18]) it was no more than 19700 mg/m3. Also, the NOAEL in the data set with Rattus norvegicus [5] was 50 mg/kg-day; in the data set on Rattus norvegicus [6] (setting [14]), no less than 1310 mg/m3; in the data set on Rattus norvegicus [6] (reproduction developmental, duration: 11 days, inhalation, F), greater than 1310 mg/m3; in the data set on Rattus norvegicus [6] (reproduction developmental, duration: 365 days, inhalation, generation: F0) it was 131 mg/m3; with Rattus norvegicus [6] (reproduction developmental, duration: 365 days, inhalation, generation: F1), 131 mg/m3; in the data set with Rattus norvegicus [6] (reproduction developmental, duration: 365 days, inhalation, generation: F2), 131 mg/m3. Besides, the NOAEL in the data set with Rattus norvegicus [6] (setting [15]) was no less than 3930 mg/m3; with Rattus norvegicus [6] (setting [16]) it was greater than 500 mg/kg-day; in the data set on Primate (developmental, duration: 120 days, Macaca Fascicularis) it was greater than 2360 mg/m3; with Primate (setting [17]) it was 3930 mg/m3; in the data set with Primate (reproduction developmental, duration: 120 days, F, Macaca Fascicularis) it was greater than 2360 mg/m3; with Primate (reproduction developmental, duration: 365 days, generation: F0) it was greater than 2360 mg/m3. The NOAEL in the data set with Mus musculus [7] (reproduction developmental, duration: 18 months, B6C3F1) is greater than 1310 mg/m3; in the data set with Mus musculus [7] (reproduction developmental, duration: 10 days, F, CD1), greater than 19700 mg/m3; with Mus musculus [7] (setting [18]), no less than 13100 mg/m3.

In the data set on Mus musculus [8] (setting [19]), `C[C@](C#N)(COc1cc(C#N)ccc1C(F)(F)F)NC(=O)c1ccc(SC(F)(F)F)cc1` [Monepantel] gave an LOAEL of 5.5 mg/kg-day and an NOAEL of 1.8 mg/kg-day.

`c1ccc(Nc2cccc3ccccc23)cc1` [N-Phenyl-1-naphthylamine]: the NOAEL with Canidae [9] (chronic, duration: 36 months, oral, diet, Dog Other) amounted to 290 mg/kg-day.

For the compound `O=C1CN(/N=C/c2ccc([N+](=O)[O-])o2)C(=O)N1` [Nitrofurantoin], in the data set on Rattus norvegicus [10] (duration: 13 weeks, diet, M/F, Deaths + Body Weight Changes: decrease + Urinalysis: Bright yellow + Absolute Organ Weight: Liver increase + Relative Organ Weight: Liver …), the NOEL was less than 57.6 mg/kg-day. This compound yielded an NOAEL with Mus musculus [11] of 59.1 mg/kg-day.

With `O=[Se]([O-])[O-].[Na+].[Na+]` [Sodium selenite], in the data set on Rattus norvegicus [10] (drinking water, F, Deaths + Body Weight Changes: decrease + Water Consumption: decrease + Hematology: Hct increase, Hgb increase, RBC increase + Blood …), the NOEL is 0.17 mg/kg-day. The NOEL in the data set with Rattus norvegicus [10] (drinking water, M/F, Deaths + Body Weight Changes: decrease + Water Consumption: decrease + Hematology: Hct increase, Hgb increase, RBC increase + Blood …) amounted to 0.304 mg/kg-day. In the data set with Anas platyrhynchos, the LOAEL came to 1 mg/kg-day and the NOAEL came out at 0.5 mg/kg-day.

Regarding `c1ccc2[nH]c(-c3cscn3)nc2c1` [Thiabendazole], the NOEL in the data set on Canidae [12] (chronic, duration: 1 years, Beagle) came to 10 mg/kg-day; in the data set on Canidae [12] (chronic, duration: 1 years, Dog Other), 10 mg/kg-day; with Canidae [12] (duration: 1 year, Beagle), 10 mg/kg-day; in the data set on Canidae [12] (duration: 1 year, Dog Other) it was 10 mg/kg-day; in the data set with Rattus norvegicus [13] (chronic, diet), 10 mg/kg-day; in the data set with Rattus norvegicus [13] (feed), 10 mg/kg-day. The LOEL amounted to 40 mg/kg-day in the data set on Rattus norvegicus [13] (chronic, diet) and 40 mg/kg-day in the data set on Rattus norvegicus [13] (feed).

Consider `CSc1nc2cc(Oc3cccc(Cl)c3Cl)c(Cl)cc2[nH]1` [Triclabendazole], for which the NOEL in the data set on Mus musculus [8] (Chronic / dietary, feed) was determined as 0.27 mg/kg-day; with Mus musculus [8] (chronic, diet), 0.27 mg/kg-day.

Take `FC(F)F` [Trifluoromethane]: in the data set on Canidae [9] (repeat dose other, inhalation, Beagle), the LOAEL is greater than 14300 mg/m3.

In the data set on Neovison sp., `Cc1ccccc1O` [o-Cresol] showed an NOAEL of 219 mg/kg-day. Besides, in the data set on Rattus norvegicus [3] (setting [20]), the LOAEL is 150 mg/kg-day and the NOAEL amounted to 50 mg/kg-day.
